In BindingDB's records for patent WO2022098806 (MERCK SHARP & DOHME LLC, 2022) one finds IC50 data, which are given here for 59 compounds.

SMILES strings stand for the structures.

The target of the experiment is Mitogen-activated protein kinase kinase kinase kinase 1 (Homo sapiens, UniProt Q92918). As to the kind of experiment: HPK1-SLP76 TR-FRET ASSAY. On the technique in general: In TR-FRET formats the signal depends on donor and acceptor labels being close together.
Mitogen-activated protein kinase kinase kinase kinase 1, sequence (Q92918 whole entry): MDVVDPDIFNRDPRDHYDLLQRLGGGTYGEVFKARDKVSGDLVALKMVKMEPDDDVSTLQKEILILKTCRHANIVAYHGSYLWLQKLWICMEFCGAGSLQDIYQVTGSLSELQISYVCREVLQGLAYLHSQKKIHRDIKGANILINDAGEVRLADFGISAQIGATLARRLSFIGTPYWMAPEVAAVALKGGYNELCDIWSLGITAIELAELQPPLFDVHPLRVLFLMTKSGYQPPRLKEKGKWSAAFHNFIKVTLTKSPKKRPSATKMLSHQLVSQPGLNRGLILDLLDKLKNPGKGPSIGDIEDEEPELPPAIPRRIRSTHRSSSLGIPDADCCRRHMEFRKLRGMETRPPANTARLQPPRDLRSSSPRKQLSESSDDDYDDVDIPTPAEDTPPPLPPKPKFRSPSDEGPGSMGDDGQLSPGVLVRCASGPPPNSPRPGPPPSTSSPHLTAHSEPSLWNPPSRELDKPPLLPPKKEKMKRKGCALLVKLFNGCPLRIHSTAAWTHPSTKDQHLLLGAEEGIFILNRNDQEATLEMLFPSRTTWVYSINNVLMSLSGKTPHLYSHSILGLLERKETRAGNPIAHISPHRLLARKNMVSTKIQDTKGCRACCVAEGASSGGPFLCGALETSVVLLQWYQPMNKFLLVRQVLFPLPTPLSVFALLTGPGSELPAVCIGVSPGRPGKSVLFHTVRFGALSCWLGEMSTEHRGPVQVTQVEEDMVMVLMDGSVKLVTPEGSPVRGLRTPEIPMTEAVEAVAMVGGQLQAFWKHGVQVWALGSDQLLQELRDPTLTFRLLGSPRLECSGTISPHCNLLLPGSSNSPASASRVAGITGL
The compound `COc1cc2c(cc1Nc1ncc3ccc(-c4cncc5cccnc45)cc3n1)CN(C)CC2` [WO2022098806, Compound 1-24] displayed an IC50 of 10 nM.

As to `COc1cc2c(cc1Nc1ncc3ccc(-c4cnn(C(F)F)c4)cc3n1)CN(C)CC2` [WO2022098806, Compound 1-26], the IC50 was 11 nM. Compound `COc1cc2c(cc1Nc1ncc3ccc(-c4cncc(NS(C)(=O)=O)c4)cc3n1)CNCC2` [WO2022098806, Compound 1-36] showed an IC50 of 183 nM.

Compound `COc1cc2c(cc1Nc1ncc3ccc(-c4cnccc4Cl)cc3n1)CNCC2` [WO2022098806, Compound 1-37] yielded an IC50 of 28 nM.

`COc1cc2c(cc1Nc1ncc3ccc(-c4cncc(N5CCOCC5)c4)cc3n1)CNCC2` [WO2022098806, Compound 1-42]: the IC50 is 39 nM. As for `CCCC(=O)Nc1cncc(-c2ccc3cnc(Nc4cc5c(cc4OC)CCNC5)nc3c2)c1` [WO2022098806, Compound 1-52], the half-maximal inhibitory concentration (IC50) was found to be 11 nM. In the case of `COc1cc2c(cc1Nc1ncc3ccc(-c4cccc(CO)c4)cc3n1)CNCC2` [WO2022098806, Compound 1-60], 20 nM corresponded to half-maximal inhibition (IC50).

In turn, `COc1cc2c(cc1Nc1ncc3ccc(-c4cccc(S(=O)(=O)N5CCOCC5)c4)cc3n1)CNCC2` [WO2022098806, Compound 1-77] registered a half-maximal inhibitory concentration (IC50) of 25 nM. Regarding `COc1cc2c(cc1Nc1ncc3ccc(-c4cccc(S(=O)(=O)N5CCCCC5)c4)cc3n1)CNCC2` [WO2022098806, Compound 1-82], half-maximal inhibition (IC50) required 15 nM. With `COc1cc2c(cc1Nc1ncc3ccc(-c4cccc(NCC(C)=O)c4)cc3n1)CN(C)CC2` [WO2022098806, Compound 1-98], half-maximal inhibition (IC50) required 203 nM. In the case of `COc1cc2c(cc1Nc1ncc3ccc(-c4cccc(C5CCC(=O)N5)c4)cc3n1)CN(C)CC2` (centres undefined) [WO2022098806, Compound 1-99] it was 120 nM; in that of `COc1cc2c(cc1Nc1ncc3ccc(-c4cnn(CC(C)O)c4)cc3n1)CN(C)CC2` (centres undefined) [WO2022098806, Compound 1-102], 22 nM; in that of `Cc1c(-c2cc3nc(Nc4ccc5c(c4)CN(C)CC5)ncc3cc2F)cnc2c1NCCO2` [WO2022098806, Compound 1-114], 0.09 nM.

The compound `Cc1c(-c2cc3nc(Nc4ccc(CS(C)(=O)=O)cc4)ncc3cc2F)cnc2c1NCCO2` [WO2022098806, Compound 1-115] gave an IC50 of 0.05 nM. `CNC(=O)[C@@H](C)c1ccc(Nc2ncc3cc(F)c(-c4cnc5c(c4C)NCCO5)cc3n2)cc1` [WO2022098806, Compound 1-116]: the IC50 stood at 0.22 nM. Turning to `CNC(=O)[C@H](C)c1ccc(Nc2ncc3cc(F)c(-c4cnc5c(c4C)NCCO5)cc3n2)cc1` [WO2022098806, Compound 1-117], 0.07 nM corresponded to half-maximal inhibition (IC50). Regarding `CNC(=O)[C@@H]1CCc2cc(Nc3ncc4cc(F)c(-c5cnc6c(c5C)NCCO6)cc4n3)ccc21` [WO2022098806, Compound 1-118], inhibition was half-maximal at 0.04 nM (IC50). On to `CNC(=O)[C@H]1CCc2cc(Nc3ncc4cc(F)c(-c5cnc6c(c5C)NCCO6)cc4n3)ccc21` [WO2022098806, Compound 1-119], for which inhibition was half-maximal at 1.17 nM (IC50). The compound `CNC(=O)C1(c2ccc(Nc3ncc4cc(F)c(-c5cnc6c(c5C)NCCO6)cc4n3)cc2)CCC1` [WO2022098806, Compound 1-121] gave an IC50 of 0.26 nM.

For `Cc1c(-c2cc3nc(Nc4ccc([C@H](C)S(C)(=O)=O)cc4)ncc3cc2F)cnc2c1NCCO2` [WO2022098806, Compound 1-124], it took 0.04 nM to reach half-maximal inhibition (IC50).

Take `Cc1c(-c2cc3nc(Nc4ccc([C@@H]5CCN(C)C5=O)cc4)ncc3cc2F)cnc2c1NCCO2` [WO2022098806, Compound 1-125]: the IC50 was 0.06 nM. `Cc1c(-c2cc3nc(Nc4ccc([C@@H](C)S(C)(=O)=O)cc4)ncc3cc2F)cnc2c1NCCO2` [WO2022098806, Compound 1-126] gave an IC50 of 0.68 nM.

On to `Cc1c(-c2cc3nc(Nc4ccc([C@H]5CCN(C)C5=O)cc4)ncc3cc2F)cnc2c1NCCO2` [WO2022098806, Compound 1-127], for which half-maximal inhibition (IC50) was put at 0.95 nM. `Cc1c(-c2cc3nc(Nc4ccc(CS(=O)(=O)C(C)C)cc4)ncc3cc2F)cnc2c1NCCO2` [WO2022098806, Compound 1-128] had a half-maximal inhibitory concentration (IC50) of 0.08 nM. Under `Cc1c(-c2ccc3cnc(Nc4ccc(CS(=O)(=O)C(C)C)cc4)nc3c2)cnc2c1NCCO2` [WO2022098806, Compound 1-129] stands 0.09 nM; under `CNC(=O)Cc1ccc(Nc2ncc3cc(F)c(-c4cnc5c(c4C)NCCO5)cc3n2)cc1` [WO2022098806, Compound 1-130], 0.07 nM. In the case of `Cc1c(-c2cc3nc(Nc4ccc(CC(N)=O)cc4)ncc3cc2F)cnc2c1NCCO2` [WO2022098806, Compound 1-131], it took 0.16 nM to reach half-maximal inhibition (IC50). Regarding `Cc1c(-c2cc3nc(Nc4ccc(CC(=O)N(C)C)cc4)ncc3cc2F)cnc2c1NCCO2` [WO2022098806, Compound 1-132], the IC50 came to 0.13 nM. Consider `Cc1c(-c2cc3nc(Nc4ccc(CC(=O)N5CCOCC5)cc4)ncc3cc2F)cnc2c1NCCO2` [WO2022098806, Compound 1-133], for which the IC50 was determined as 0.08 nM. In the case of `CCS(=O)(=O)Cc1ccc(Nc2ncc3ccc(-c4cnc5c(c4C)NCCO5)cc3n2)cc1` [WO2022098806, Compound 1-134] it was 0.04 nM. Under `COc1cc2c(cc1Nc1ncc3c(N)c(F)c(-c4cnc5c(c4C)NCCO5)cc3n1)CN(C)CC2` [WO2022098806, Compound 2-2] stands 0.09 nM; under `CC(=O)N1CCCc2cc(Nc3ncc4c(N)c(F)c(-c5cnc6c(c5C)NCCO6)cc4n3)ccc21` [WO2022098806, Compound 2-7], 0.11 nM; under `CC(=O)N[C@@H]1CCc2cc(Nc3ncc4c(N)c(F)c(-c5cnc6c(c5C)NCCO6)cc4n3)ccc21` [WO2022098806, Compound 2-10], 0.12 nM.

Regarding `CC(=O)N[C@H]1CCc2cc(Nc3ncc4c(N)c(F)c(-c5cnc6c(c5C)NCCO6)cc4n3)ccc21` [WO2022098806, Compound 2-11], the IC50 was 0.08 nM.

Compound `CC(=O)N1CCc2ccc(Nc3ncc4c(N)c(F)c(-c5cnc6c(c5C)NCCO6)cc4n3)cc2C1` [WO2022098806, Compound 2-12] came in with an IC50 of 865 nM. For the compound `Cc1c(-c2cc3nc(Nc4cccc(S(C)(=O)=O)c4)ncc3c(N)c2F)cnc2c1NCCO2` [WO2022098806, Compound 2-14], the IC50 was found to be 0.08 nM. With `CC(=O)Nc1ccc(Nc2ncc3c(N)c(F)c(-c4cnc5c(c4C)NCCO5)cc3n2)cc1` [WO2022098806, Compound 2-15], the IC50 stood at 0.07 nM.

The compound `Cc1c(-c2cc3nc(Nc4ccc(NS(C)(=O)=O)cc4)ncc3c(N)c2F)cnc2c1NCCO2` [WO2022098806, Compound 2-16] came in with an IC50 of 0.09 nM. Under `Cc1c(-c2cc3nc(Nc4ccc(S(C)(=O)=O)cc4)ncc3c(N)c2F)cnc2c1NCCO2` [WO2022098806, Compound 2-17] stands 0.09 nM.

`CNC(=O)c1ccc(Nc2ncc3c(N)c(F)c(-c4cnc5c(c4C)NCCO5)cc3n2)cc1` [WO2022098806, Compound 2-23] gave a half-maximal inhibitory concentration (IC50) of 0.05 nM. On to `Cc1c(-c2cc3nc(Nc4ccccc4)ncc3c(N)c2F)cnc2c1NCCO2` [WO2022098806, Compound 2-25], for which the IC50 was found to be 0.27 nM. In turn, `Cc1c(-c2cc3nc(Nc4ccccc4C4CC4)ncc3c(N)c2F)cnc2c1NCCO2` [WO2022098806, Compound 2-26] had a half-maximal inhibitory concentration (IC50) of 11 nM. Under `COc1ncccc1Nc1ncc2c(N)c(F)c(-c3cnc4c(c3C)NCCO4)cc2n1` [WO2022098806, Compound 2-27] stands 0.12 nM. Compound `CC(=O)N1CCC[C@@H]1c1ccc(Nc2ncc3c(N)c(F)c(-c4cnc5c(c4C)NCCO5)cc3n2)cc1` [WO2022098806, Compound 2-28] returned an IC50 of 0.15 nM. Consider `CC(=O)N1CCC[C@H]1c1ccc(Nc2ncc3c(N)c(F)c(-c4cnc5c(c4C)NCCO5)cc3n2)cc1` [WO2022098806, Compound 2-29], for which inhibition was half-maximal at 0.27 nM (IC50).

`CC(=O)NCc1ccc(Nc2ncc3c(N)c(F)c(-c4cnc5c(c4C)NCCO5)cc3n2)cc1` [WO2022098806, Compound 2-30] showed an IC50 of 0.08 nM. With `Cc1c(-c2cc3nc(Nc4cccc(S(=O)(=O)NC(C)(C)C)c4)ncc3c(N)c2F)cnc2c1NCCO2` [WO2022098806, Compound 2-33], the IC50 worked out at 0.19 nM.

The compound `CNS(=O)(=O)c1cccc(Nc2ncc3c(N)c(F)c(-c4cnc5c(c4C)NCCO5)cc3n2)c1` [WO2022098806, Compound 2-34] registered an IC50 of 0.12 nM.

`COc1cc2c(cc1Nc1ncc3c(N)c(F)c(-c4cnc5c(c4C)NCCO5)cc3n1)[C@@H](C)N(C)CC2` [WO2022098806, Compound 2-35] returned an IC50 of 0.15 nM. Under `COc1cc2c(cc1Nc1ncc3c(N)c(F)c(-c4cnc5c(c4C)NCCO5)cc3n1)[C@H](C)N(C)CC2` [WO2022098806, Compound 2-36] stands 0.1 nM; under `Cc1c(-c2cc3nc(Nc4ccc5c(c4)C(C)(C)OC5=O)ncc3c(N)c2F)cnc2c1NCCO2` [WO2022098806, Compound 2-41], 0.08 nM. With `Cc1c(-c2cc3nc(Nc4ccc5c(c4)CN(CC(C)(C)O)C5=O)ncc3c(N)c2F)cnc2c1NCCO2` [WO2022098806, Compound 2-42], the IC50 came to 0.15 nM. `Cc1c(-c2cc3nc(Nc4ccc5c(c4)CCS5(=O)=O)ncc3c(N)c2F)cnc2c1NCCO2` [WO2022098806, Compound 2-43] had an IC50 of 0.08 nM. `Cc1ccncc1-c1cc2nc(Nc3ccc(CS(C)(=O)=O)cc3)ncc2c(N)c1F` [WO2022098806, Compound 2-44] returned an IC50 of 0.19 nM. In the case of `COc1cc2c(cc1Nc1ncc3c(N)c(F)c(-c4cnc5ncsc5c4)cc3n1)CN(C)CC2` [WO2022098806, Compound 2-47], it took 25 nM to reach half-maximal inhibition (IC50). In the case of `COc1cc2c(cc1Nc1ncc3c(N)c(F)c(-c4cnc5c(c4C)NCCO5)cc3n1)C(C)N(C)C(C)C2` (centres undefined) [WO2022098806, Compound 2-48] it was 0.7 nM; in that of `COc1cc2c(cc1Nc1ncc3c(N)c(F)c(-c4cc5oc(=O)[nH]c5cc4C)cc3n1)CN(C)CC2` [WO2022098806, Compound 2-49], 10 nM.

`COc1cc([C@@H]2CCN(C)C2=O)ccc1Nc1ncc2c(N)c(F)c(-c3cnc4c(c3C)NCCO4)cc2n1` [WO2022098806, Compound 2-54] registered an IC50 of 0.08 nM. `COc1cc([C@H](C)S(C)(=O)=O)ccc1Nc1ncc2c(N)c(F)c(-c3cnc4c(c3C)NCCO4)cc2n1` [WO2022098806, Compound 2-55] registered a concentration for half-maximal inhibition (IC50) of 1.62 nM.

Usually IC50 stands for the concentration that gives 50% inhibition.
